What was measured:
PfCDPK4 = PfCDPK4 (Plasmodium falciparum (isolate 3D7), UniProt Q8IBS5); test: biochemical; settings: read-out: PfCDPK4 (% inhibition @ 3 uM)
PfCDPK1 = PfCDPK1 (Plasmodium falciparum (isolate 3D7), UniProt P62344); test: biochemical; settings: read-out: PfCDPK1 (% inhibition @ 3 uM)

SMILES | inhibition at 3 µM (PfCDPK4) [%] | inhibition at 3 µM (PfCDPK1) [%]
Cc1cc(-c2nn(CC3CCNCC3)c3ncnc(N)c23)ccc1-c1ccccc1 [Compound 118] | 81 | 97
CC(C)CC(=O)Nc1ccc(-c2nn(C(C)(C)C)c3ncnc(N)c23)cc1 [Compound 62, N-(4-(4-amino-1-tert-butyl-1H-pyrazolo[3,4-d]pyrimidin-3-yl)phenyl)-3-methylbutanamide] | 95 | 102
CC(C)(C)n1nc(-c2ccc3ncccc3c2)c2c(N)ncnc21 [Compound 143] | 97 | 97
CC(C)COc1ccc2cc(-c3nn(C(C)C)c4ncnc(N)c34)ccc2c1 [Compound 43, 3-(6-isobutoxynaphthalen-2-yl)-1-isopropyl-1H-pyrazolo[3,4-d]pyrimidin-4-amine] | 78 | 100
CC(C)(C)n1nc(-c2ccc(NC(=O)C3CCCC3)cc2)c2c(N)ncnc21 [Compound 63, N-(4-(4-amino-1-tert-butyl-1H-pyrazolo[3,4-d]pyrimidin-3-yl)phenyl)cyclopentanecarboxamide] | 96 | 103
CC(C)Oc1ccc2cc(-c3nn(C(C)C)c4ncnc(N)c34)ccc2c1 [Compound 11, 3-(6-isopropoxynaphthalen-2-yl)-1-isopropyl-1H-pyrazolo[3,4-d]pyrimidin-4-amine] | 87 | 93
CC(C)c1nc(-c2cnc3ccccc3c2)c2c(N)nccn12 [Compound 9, 3-isopropyl-1-(quinolin-3-yl)imidazo[1,5-a]pyrazin-8-amine] | 88 | 76
CC(C)Oc1ccc2cc(-c3nn(CC4CCNCC4)c4ncnc(N)c34)ccc2c1 [Compound 32, 3-(6-isopropoxynaphthalen-2-yl)-1-(piperidin-4-ylmethyl)-1H-pyrazolo[3,4-d]pyrimidin-4-amine] | 96 | 
Nc1ncnc2c1c(Cc1cccc3ccccc13)nn2C1CCNCC1 [Compound 5g, 3-(naphthalen-1-ylmethyl)-1-(piperidin-4-yl)-1H-pyrazolo[3,4-d]pyrimidin-4-amine] | 75 | 56
CC(C)n1nc(-c2ccc3cc(OCc4ccccc4)ccc3c2)c2c(N)ncnc21 [Compound 40, 3-(6-(benzyloxy)naphthalen-2-yl)-1-isopropyl-1H-pyrazolo[3,4-d]pyrimidin-4-amine] | 84 | 101
O=C(CC1CCNCC1)Nc1nc2ccc(C(=O)c3ccccc3)cc2[nH]1 [Compound 113] | 61 | 65
CCOc1ccc2cc(-c3nc(C(C)(C)C)n4ccnc(N)c34)ccc2c1 [Compound 69, 3-tert-butyl-1-(6-ethoxynaphthalen-2-yl)imidazo[1,5-a]pyrazin-8-amine] | 97 | 101
CC(C)C(=O)Nc1ccc(-c2nn(C(C)(C)C)c3ncnc(N)c23)cc1 [Compound 59, N-(4-(4-amino-1-tert-butyl-1H-pyrazolo[3,4-d]pyrimidin-3-yl)phenyl)isobutyramide] | 79 | 98
Nc1nc2ccc(C(=O)c3ccccc3)cc2[nH]1 [Compound 92] | 51 | 68
CC(C)n1nc(-c2ccc3cc(OC(=O)c4cccc(Cl)c4)ccc3c2)c2c(N)ncnc21 [Compound 85] | 72 | 99
CC(C)n1nc(-c2ccc3cc(OCc4ccc(C(C)(C)C)cc4)ccc3c2)c2c(N)ncnc21 [Compound 54, 3-(6-(4-tert-butylbenzyloxy)naphthalen-2-yl)-1-isopropyl-1H-pyrazolo[3,4-d]pyrimidin-4-amine] | 77 | 101
Nc1ncnc2c1c(-c1cnc3ccccc3c1)nn2CC1CCNCC1 [Compound 30, 1-(piperidin-4-ylmethyl)-3-(quinolin-3-yl)-1H-pyrazolo[3,4-d]pyrimidin-4-amine] | 86 | 82
Cc1cc(-c2nn(C(C)(C)C)c3ncnc(N)c23)ccc1-c1ccccc1 [Compound 133] | 26 | 79
NCCC(=O)Nc1nc2ccc(C(=O)c3ccccc3)cc2[nH]1 [Compound 94] | 51 | 71
CC(C)n1nc(Cc2ccc3ccccc3c2)c2c(N)ncnc21 [Compound 14, 1-isopropyl-3-(naphthalen-2-ylmethyl)-1H-pyrazolo[3,4-d]pyrimidin-4-amine] | 13 | 
Nc1ncnc2c1c(Cc1cccc3ccccc13)nn2C1CCCC1 [Compound 13, 1-cyclopentyl-3-(naphthalen-1-ylmethyl)-1H-pyrazolo[3,4-d]pyrimidin-4-amine] | 25 | 
CC(C)n1nc(-c2ccc3c(ccn3C)c2)c2c(N)ncnc21 [Compound 20, 1-isopropyl-3-(1-methyl-1H-indol-5-yl)-1H-pyrazolo[3,4-d]pyrimidin-4-amine] | 93 | 

SMILES | inhibition at 3 µM (PfCDPK4) [%] | inhibition at 3 µM (PfCDPK1) [%]
Nc1ncnc2c1c(Cc1cccc3ccccc13)nn2C1CCOCC1 [Compound 15, 3-(naphthalen-1-ylmethyl)-1-(tetrahydro-2H-pyran-4-yl)-1H-pyrazolo[3,4-d]pyrimidin-4-amine] | 11 | 
C=CCOc1ccc2cc(-c3nn(CC4CCNCC4)c4ncnc(N)c34)ccc2c1 [Compound 36, 3-(6-(allyloxy)naphthalen-2-yl)-1-(piperidin-4-ylmethyl)-1H-pyrazolo[3,4-d]pyrimidin-4-amine] | 99 | 
CS(=O)(=O)N1CCC(n2nc(Cc3cccc4ccccc34)c3c(N)ncnc32)CC1 [Compound 5p, 1-(1-(methylsulfonyl)piperidin-4-yl)-3-(naphthalen-1-ylmethyl)-1H-pyrazolo[3,4-d]pyrimidin-4-amine] | 53 | 
CC(C)n1nc(-c2ccnc(Cl)c2)c2c(N)ncnc21 [Compound 19, 3-(2-chloropyridin-4-yl)-1-isopropyl-1H-pyrazolo[3,4-d]pyrimidin-4-amine] | 14 | 
CC(=O)N1CCC(n2nc(Cc3cccc4ccccc34)c3c(N)ncnc32)CC1 [Compound 5j, 1-(4-(4-amino-3-(naphthalen-1-ylmethyl)-1H-pyrazolo[3,4-d]pyrimidin-1-yl)piperidin-1-yl)ethanone] | 48 | 
CC(C)n1nc(-c2cccc(Cc3ccccc3)c2)c2c(N)ncnc21 [Compound 7y, 3-(3-benzylphenyl)-1-isopropyl-1H-pyrazolo[3,4-d]pyrimidin-4-amine] | 17 | 
Nc1ncnc2c1c(Cc1cccc3ccccc13)nn2Cc1ccccc1 [Compound 5e, 1-benzyl-3-(naphthalen-1-ylmethyl)-1H-pyrazolo[3,4-d]pyrimidin-4-amine] | 5 | 
Cn1nc(Cc2cccc3ccccc23)c2c(N)ncnc21 [Compound 5a, 1-methyl-3-(naphthalen-1-ylmethyl)-1H-pyrazolo[3,4-d]pyrimidin-4-amine] | 52 | 
CCCOc1ccc2cc(-c3nn(CC4CCNCC4)c4ncnc(N)c34)ccc2c1 [Compound 33, 1-(piperidin-4-ylmethyl)-3-(6-propoxynaphthalen-2-yl)-1H-pyrazolo[3,4-d]pyrimidin-4-amine] | 98 | 
Nc1ncnc2c1c(Cc1cccc3ccccc13)nn2C1CCCCC1 [Compound 5f, 1-cyclohexyl-3-(naphthalen-1-ylmethyl)-1H-pyrazolo[3,4-d]pyrimidin-4-amine] | 15 | 
CC(C)n1nc(-c2cc3ccccc3[nH]2)c2c(N)ncnc21 [Compound 24, 3-(1H-indol-2-yl)-1-isopropyl-1H-pyrazolo[3,4-d]pyrimidin-4-amine] | 93 | 
CC(C)n1nc(-c2ccc3c(c2)CCCO3)c2c(N)ncnc21 [Compound 7w, 3-(chroman-6-yl)-1-isopropyl-1H-pyrazolo[3,4-d]pyrimidin-4-amine] | 55 | 
CCN1CCC(n2nc(Cc3cccc4ccccc34)c3c(N)ncnc32)CC1 [Compound 5m, 1-(1-ethylpiperidin-4-yl)-3-(naphthalen-1-ylmethyl)-1H-pyrazolo[3,4-d]pyrimidin-4-amine] | 42 | 
CCCCOc1ccc2cc(-c3nn(CC4CCNCC4)c4ncnc(N)c34)ccc2c1 [Compound 35, 3-(6-butoxynaphthalen-2-yl)-1-(piperidin-4-ylmethyl)-1H-pyrazolo[3,4-d]pyrimidin-4-amine] | 99 | 
Nc1ncnc2c1c(-c1ccc3cc(OCc4cccc(Cl)c4)ccc3c1)nn2CC1CCNCC1 [Compound 38, 3-(6-(3-chlorobenzyloxy)naphthalen-2-yl)-1-(piperidin-4-ylmethyl)-1H-pyrazolo[3,4-d]pyrimidin-4-amine] | 96 | 
CC(C)n1nc(-c2cccc3c2sc2ccccc23)c2c(N)ncnc21 [Compound 7x, 3-(dibenzo[b,d]thiophen-4-yl)-1-isopropyl-1H-pyrazolo[3,4-d]pyrimidin-4-amine] | 21 | 
C#CCn1nc(Cc2cccc3ccccc23)c2c(N)ncnc21 [Compound 5b, 3-(naphthalen-1-ylmethyl)-1-(prop-2-ynyl)-1H-pyrazolo[3,4-d]pyrimidin-4-amine] | 20 | 
Nc1ncnc2c1c(-c1ccc3cc(OCc4ccccc4Cl)ccc3c1)nn2CC1CCNCC1 [Compound 37, 3-(6-(2-chlorobenzyloxy)naphthalen-2-yl)-1-(piperidin-4-ylmethyl)-1H-pyrazolo[3,4-d]pyrimidin-4-amine] | 96 | 
CC(C)n1nc(-c2cccnc2)c2c(N)ncnc21 [Compound 16, 1-isopropyl-3-(pyridin-3-yl)-1H-pyrazolo[3,4-d]pyrimidin-4-amine] | 13 | 
COc1ccc2[nH]c(-c3nn(C(C)C)c4ncnc(N)c34)cc2c1 [Compound 27, 1-isopropyl-3-(5-methoxy-1H-indol-2-yl)-1H-pyrazolo[3,4-d]pyrimidin-4-amine] | 44 | 
CC(C)n1nc(-c2cncnc2)c2c(N)ncnc21 [Compound 18, 1-isopropyl-3-(pyrimidin-5-yl)-1H-pyrazolo[3,4-d]pyrimidin-4-amine] | 4 | 

Source: patent US11247972B2, “Compositions and methods for treating toxoplasmosis, cryptosporidiosis, and other apicomplexan protozoan related diseases” (University of Washington through its Center for …, priority 2010, dated 2022)
